Experimental data reported in patent US6362369B1, “Phthalic acid diamide derivatives fluorine-containing aniline compounds as starting material, agricultural and horticultural insecticides, and a method for application of the insecticides” (Nihon Nohyaku Co., Ltd., priority 1997, dated 2002).

Assays:
Format in all cases: in vivo
[1] = tested on: common cutworm (Spodoptera Litura); test: Insecticidal effect on common cutworm (Test Example 2); details: 500 ppm, 25° C.; for Insecticidal effect, Test Example 2: cabbage leaf immersed; for Insecticidal effect, Test Example 2 / Insecticidal effect on common cutworm (Test Example 2), judged grade: eight days after inoculation; for Insecticidal effect on common cutworm (Test Example 2), judged grade / Insecticidal effect (Test Example 2), judged from mortality: cabbage leaf dip; for Insecticidal effect on common cutworm (Test Example 2), judged grade: second-instar larvae; for Insecticidal effect (Test Example 2), judged from mortality: 8 days after inoculation
Procedure, shortened: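 After the treated material air-dries, it goes into a dish, second-instar larvae are added, and the dish is closed. Incubation runs at 25° C. On day eight, dead and living larvae are scored, and the calculated mortality is rated on an effect scale.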

[2] = tested on: rice leafroller (Cnaphalocrocis medinalis); test: Insecticidal effect on rice leafroller (Test Example 3); details: 500 ppm, 25° C., humidity 70%; for Insecticidal effect, Test Example 3: rice lamina immersed; for Insecticidal effect, Test Example 3 / Insecticidal effect on rice leafroller (Test Example 3), judged grade: four days after inoculation; for Insecticidal effect on rice leafroller (Test Example 3), judged grade / Insecticidal effect (Test Example 3), judged from mortality: rice lamina dip; for Insecticidal effect on rice leafroller (Test Example 3), judged grade: third-instar larvae; for Insecticidal effect (Test Example 3), judged from mortality: 4 days after inoculation
Procedure, shortened: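 Groups of 10 third-instar larvae, in triplicate, are placed on air-dried lamina resting on wet filter paper. Incubation runs four days at 25° C with 70% humidity before survivors and dead are tallied.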

[3] = tested on: diamondback moth (Plutella xylostella); test: Insecticidal effect on diamondback moth (Test Example 1); details: for Insecticidal effect, Test Example 1 / Insecticidal effect (Test Example 1), judged from mortality: diamondback moth; for Insecticidal effect on diamondback moth (Test Example 1), judged grade: mortality judged according to the criterion shown in Test Example 1; for Insecticidal effect (Test Example 1), judged from mortality: judged by the criterion of Test Example 1
Procedure, shortened: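 Chinese cabbage seedlings carrying eggs laid by released adult moths were immersed in treatment, air-dried and held at 25° C. Hatched insects were counted six days after immersion, and mortality was calculated and scored against a fixed criterion. Three replicate groups of 10 insects were used.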

[4] = second-instar larvae of common cutworm
[5] = third-instar larvae of rice leafroller
[6] = judged by the mortality criterion of Test Example 1
[7] = common cutworm second-instar larvae
[8] = rice leafroller third-instar larvae
[9] = mortality judged by criterion of Test Example 1

## CC(C)NC(=O)c1c(I)cccc1C(=O)Nc1ccc(OC(F)(F)F)cc1Br [compound 406]
[1]; [4]
  Insecticidal effect, Test Example 2: A (100)
[2]; [5]
  Insecticidal effect, Test Example 3: A (100)
[3]; [6]
  Insecticidal effect, Test Example 1: A (100)

## Cc1cc(Br)ccc1NC(=O)c1cccc(I)c1C(=O)NC(C)C [compound 366]
[1]; [4]
  Insecticidal effect, Test Example 2: A (100)
[2]; [5]
  Insecticidal effect, Test Example 3: A (100)
[3]; [6]
  Insecticidal effect, Test Example 1: A (100)

## CC(C)NC(=O)c1c(I)cccc1C(=O)Nc1ccc(C(O)(C(F)(F)F)C(F)(F)F)cc1 [compound 1004]
[1]; [7]
  Insecticidal effect, Test Example 2: A (100)
[2]; [8]
  Insecticidal effect, Test Example 3: A (100)
[3]; [9]
  Insecticidal effect, Test Example 1: A (100)

## Cc1cc(OC(F)(F)Br)ccc1NC(=O)c1cccc(Cl)c1C(=O)NC(C)(C)C [compound 1050]
[1]; [7]
  Insecticidal effect, Test Example 2: A (100)
[2]; [8]
  Insecticidal effect, Test Example 3: A (100)
[3]; [9]
  Insecticidal effect, Test Example 1: A (100)

## COc1ccc(NC(=O)c2cccc(Br)c2C(=O)NC(C)C)c(C)c1C [compound 285]
[1]; [4]
  Insecticidal effect, Test Example 2: D (79-50)
[2]; [5]
  Insecticidal effect, Test Example 3: A (100)
[3]; [6]
  Insecticidal effect, Test Example 1: A (100)

## CC(C)NC(=O)c1c(Cl)cccc1C(=O)Nc1ccc2oc(C(F)(F)F)nc2c1 [compound 165]
[1]; [4]
  Insecticidal effect, Test Example 2: B (99-90)
[2]; [5]
  Insecticidal effect, Test Example 3: C (89-80)
[3]; [6]
  Insecticidal effect, Test Example 1: A (100)

## Cc1ccc(Cl)cc1NC(=O)c1cccc([N+](=O)[O-])c1C(=O)NC(C)C [compound 665]
[1]
  Insecticidal effect on common cutworm (Test Example 2), judged grade: A (100)
[2]
  Insecticidal effect on rice leafroller (Test Example 3), judged grade: B (99-90)
[3]
  Insecticidal effect on diamondback moth (Test Example 1), judged grade: A (100)

## CCc1cc(C(F)(F)C(F)(F)F)ccc1NC(=O)c1cccc(I)c1C(=O)NC(C)C [compound 1017]
[1]; [7]
  Insecticidal effect, Test Example 2: A (100)
[2]; [8]
  Insecticidal effect, Test Example 3: A (100)
[3]; [9]
  Insecticidal effect, Test Example 1: A (100)

## Cc1cc(OC(F)(F)C(Cl)(Cl)Cl)ccc1NC(=O)c1c(Cl)cccc1C(=O)NC(C)C [compound 222]
[1]; [4]
  Insecticidal effect, Test Example 2: B (99-90)
[2]; [5]
  Insecticidal effect, Test Example 3: A (100)
[3]; [6]
  Insecticidal effect, Test Example 1: A (100)

## Cc1cc(OC(F)F)ccc1NC(=O)c1ccc2ccccc2c1C(=O)NC(C)C [compound 819]
[1]
  Insecticidal effect on common cutworm (Test Example 2), judged grade: B (99-90)
[2]
  Insecticidal effect on rice leafroller (Test Example 3), judged grade: A (100)
[3]
  Insecticidal effect on diamondback moth (Test Example 1), judged grade: A (100)

## Cc1cc(C(F)(F)C(F)(F)F)ccc1NC(=O)c1cccc(I)c1C(=O)NC1CC1 [compound 1024]
[1]; [7]
  Insecticidal effect, Test Example 2: A (100)
[2]; [8]
  Insecticidal effect, Test Example 3: A (100)
[3]; [9]
  Insecticidal effect, Test Example 1: A (100)

## CC(C)NC(=O)c1c(Br)cccc1C(=O)Nc1ccc(C(F)(F)F)cc1Cl [compound 276]
[1]; [4]
  Insecticidal effect, Test Example 2: A (100)
[2]; [5]
  Insecticidal effect, Test Example 3: A (100)
[3]; [6]
  Insecticidal effect, Test Example 1: A (100)

## Cc1cc(OC(F)(F)C(F)(Cl)Cl)ccc1NC(=O)c1cccc(F)c1C(=O)NC(C)C [compound 502]
[1]
  Insecticidal effect on common cutworm (Test Example 2), judged grade: A (100)
[2]
  Insecticidal effect on rice leafroller (Test Example 3), judged grade: A (100)
[3]
  Insecticidal effect on diamondback moth (Test Example 1), judged grade: A (100)

## Cc1cc(OC(F)(F)C(F)F)c(Cl)cc1NC(=O)c1cccc(I)c1C(=O)NC(C)C [compound 391]
[1]; [4]
  Insecticidal effect, Test Example 2: A (100)
[2]; [5]
  Insecticidal effect, Test Example 3: A (100)
[3]; [6]
  Insecticidal effect, Test Example 1: A (100)

## CC(C)NC(=O)c1c(C(=O)Nc2ccc3c(c2)OC(F)(F)C(F)O3)cccc1[N+](=O)[O-] (stereo not drawn) [compound 1162]
[1]; [7]
  Insecticidal effect, Test Example 2: A (100)
[2]; [8]
  Insecticidal effect, Test Example 3: A (100)
[3]; [9]
  Insecticidal effect, Test Example 1: A (100)

## CC(C)NC(=O)c1c(I)cccc1C(=O)Nc1ccc2c(c1Cl)OC(F)C(F)(F)O2 (stereo not drawn) [compound 1733]
[1]; [4]
  Insecticidal effect (Test Example 2), judged from mortality: A (100)
[2]; [5]
  Insecticidal effect (Test Example 3), judged from mortality: A (100)
[3]
  Insecticidal effect (Test Example 1), judged from mortality: A (100)

## Cc1c(Cl)cccc1NC(=O)c1ccc(Cl)cc1C(=O)NC(C)C [compound 176]
[1]; [4]
  Insecticidal effect, Test Example 2: D (79-50)
[2]; [5]
  Insecticidal effect, Test Example 3: A (100)
[3]; [6]
  Insecticidal effect, Test Example 1: A (100)

## CC(C)(C)NC(=O)c1c(Cl)cccc1C(=O)Nc1ccc2c(c1)OC(F)(F)C(F)(F)O2 [compound 1066]
[1]; [7]
  Insecticidal effect, Test Example 2: C (89-80)
[2]; [8]
  Insecticidal effect, Test Example 3: A (100)
[3]; [9]
  Insecticidal effect, Test Example 1: A (100)

## Cc1cc(C(F)(F)C(F)(F)F)ccc1NC(=O)c1cccc(Cl)c1C(=O)NC(C)c1ccccc1Cl (stereo not drawn) [compound 1362]
[1]; [7]
  Insecticidal effect, Test Example 2: A (100)
[2]; [8]
  Insecticidal effect, Test Example 3: A (100)
[3]; [9]
  Insecticidal effect, Test Example 1: A (100)

## Cc1cc(OC(F)(F)F)ccc1NC(=O)c1ccc(I)cc1C(=O)NC(C)C [compound 1246]
[1]; [7]
  Insecticidal effect, Test Example 2: A (100)
[2]; [8]
  Insecticidal effect, Test Example 3: A (100)
[3]; [9]
  Insecticidal effect, Test Example 1: A (100)

## CC(C)(C)NC(=O)c1ccccc1C(=O)Nc1ccc2c(c1)OC(F)(F)C(F)O2 (stereo not drawn) [compound 1165]
[1]; [7]
  Insecticidal effect, Test Example 2: A (100)
[2]; [8]
  Insecticidal effect, Test Example 3: A (100)
[3]; [9]
  Insecticidal effect, Test Example 1: A (100)

## Cc1cc(Cl)ccc1NC(=O)c1cccc(F)c1C(=O)NC(C)C [compound 490]
[1]
  Insecticidal effect on common cutworm (Test Example 2), judged grade: A (100)
[2]
  Insecticidal effect on rice leafroller (Test Example 3), judged grade: A (100)
[3]
  Insecticidal effect on diamondback moth (Test Example 1), judged grade: A (100)

## CCCNC(=O)c1c(I)cccc1C(=O)Nc1ccc(OC(F)(F)C(F)F)cc1C [compound 1058]
[1]; [7]
  Insecticidal effect, Test Example 2: A (100)
[2]; [8]
  Insecticidal effect, Test Example 3: A (100)
[3]; [9]
  Insecticidal effect, Test Example 1: A (100)

## CC(C)NC(=O)c1c(I)cccc1C(=O)Nc1ccc(C(F)(F)C(F)(F)F)cc1Br [compound 1580]
[1]; [4]
  Insecticidal effect (Test Example 2), judged from mortality: A (100)
[2]; [5]
  Insecticidal effect (Test Example 3), judged from mortality: A (100)
[3]
  Insecticidal effect (Test Example 1), judged from mortality: A (100)

## CC(C)NC(=O)c1c(Cl)cccc1C(=O)Nc1ccc(SC(F)(F)F)cc1 [compound 997]
[1]; [7]
  Insecticidal effect, Test Example 2: A (100)
[2]; [8]
  Insecticidal effect, Test Example 3: A (100)
[3]; [9]
  Insecticidal effect, Test Example 1: A (100)

## CCNC(=O)c1c(I)cccc1C(=O)Nc1ccc(C(F)(F)C(F)(F)F)cc1F [compound 1502]
[1]; [4]
  Insecticidal effect (Test Example 2), judged from mortality: A (100)
[2]; [5]
  Insecticidal effect (Test Example 3), judged from mortality: A (100)
[3]
  Insecticidal effect (Test Example 1), judged from mortality: A (100)

## Cc1cc(C(F)(F)C(F)(F)C(F)(F)C(F)(F)F)ccc1NC(=O)c1c(Cl)cccc1C(=O)NC(C)C [compound 225]
[1]; [4]
  Insecticidal effect, Test Example 2: B (99-90)
[2]; [5]
  Insecticidal effect, Test Example 3: A (100)
[3]; [6]
  Insecticidal effect, Test Example 1: A (100)

## CCNC(=O)c1c(I)cccc1C(=O)Nc1ccc(C(F)(F)C(F)(F)F)cc1Cl [compound 1503]
[1]; [4]
  Insecticidal effect (Test Example 2), judged from mortality: C (89-80)
[2]; [5]
  Insecticidal effect (Test Example 3), judged from mortality: A (100)
[3]
  Insecticidal effect (Test Example 1), judged from mortality: A (100)

## C=CCN(CC=C)C(=O)c1c(I)cccc1C(=O)Nc1ccc(C(F)(F)C(F)(F)F)cc1C [compound 1045]
[1]; [7]
  Insecticidal effect, Test Example 2: A (100)
[2]; [8]
  Insecticidal effect, Test Example 3: A (100)
[3]; [9]
  Insecticidal effect, Test Example 1: A (100)

## Cc1c(NC(=O)c2cccc([N+](=O)[O-])c2C(=O)NC(C)C)cccc1OC(F)(F)C(F)Cl (stereo not drawn) [compound 713]
[1]
  Insecticidal effect on common cutworm (Test Example 2), judged grade: B (99-90)
[2]
  Insecticidal effect on rice leafroller (Test Example 3), judged grade: D (79-50)
[3]
  Insecticidal effect on diamondback moth (Test Example 1), judged grade: A (100)

## CC(C)NC(=O)c1c(I)cccc1C(=O)Nc1ccc2oc(C(F)(F)C(F)(F)F)nc2c1 [compound 1142]
[1]; [7]
  Insecticidal effect, Test Example 2: A (100)
[2]; [8]
  Insecticidal effect, Test Example 3: A (100)
[3]; [9]
  Insecticidal effect, Test Example 1: A (100)

## CCCNC(=O)c1c(I)cccc1C(=O)Nc1ccc(C(F)(F)C(F)(F)F)cc1C [compound 1303]
[1]; [7]
  Insecticidal effect, Test Example 2: A (100)
[2]; [8]
  Insecticidal effect, Test Example 3: A (100)
[3]; [9]
  Insecticidal effect, Test Example 1: A (100)
